Measured values published in patent publication US20130217644A1, “Pharmaceutical Compositions of 2'-C-Methyl-Guanosine, 5'-[2[(3-Hydroxy-2,2-Dimethyl-1-Oxopropyl)Thio]Ethyl N-(Phenylmethyl)Phosphoramidate]” (IDENIX PHARMACEUTICALS, INC., priority 2012, published 2013).

What was measured:
[1] = Excipient compatibility: ethylene sulfide in 1:1 blends of compound 1 and excipient; assay type: physicochemical; details: 1:1 weight ratio of compound 1 and excipient, glass vials, gentle rotation 30 minutes, ambient conditions
Experimental: Excipient compatibility of compound 1 with various excipients was determined. Samples of a 1:1 weight ratio of compound 1 and each excipient were blended in glass vials. The vials were subjected to gentle rotation to 30 minutes at ambient conditions. Samples were assayed for ethylene sulfide. Table 3 below presented the results for a selected group of the excipients evaluated: […]

[2] = Open-label randomized cross-over single-dose pharmacokinetic study, tablet vs liquid filled capsule; assay type: in vivo, human; details: 50 mg single doses (tablet and capsule), healthy male subjects
Experimental: A lot of tablets manufactured under cGMP conditions utilizing the composition of Example 3 (with appropriate adjustment of the weight % of PROSOLV SMCC 90 to account for the potency of Compound 1) were utilized in a pharmacokinetic study. The human clinical study was study performed in conformance with the Declaration of Helsinki and approved by a local Ethics Committee. An open-label randomized cross-over single-dose pharmacokinetic effect study was conducted in 12 healthy male subjects (ages 19-65) to compare the relative exposure of the tablet composition (50 mg compound 1) as compared to the liquid filled capsule composition (50 mg of compound 1) in the fasted state. In addition, an un-randomized third period followed the first two periods in which all 12 subjects were dosed with the tablet composition (50 mg compound 1) in the fed state, and 8 of the 12 subjects returned for a fourth period in which the 8 subjects were dosed with the liquid filled capsule composition (50 mg compound 1) in the fed state. Plasma samples for pharmacokinetic (PK) analysis were taken over a period of 120 h after dosing during each treatment period. Dosing days were at least 6 days apart (Period 1, days 1 to 6; Period 2, days 7 to 13, Period 3, days 14 to 20; and Period 4 followed the initial three periods). […] The pharmacokinetic samples were assayed for 2′-C-methyl-guanosine as well as compound 1.

HCV replication = details: in-vitro assays, as described in U.S. Pat. No. 7,951,789; cited from earlier work

CC(C)(CO)C(=O)SCCOP(=O)(NCc1ccccc1)OC[C@H]1O[C@@H](n2cnc3c(=O)[nH]c(N)nc32)C(C)(O)C1O (stereo partly drawn) [Compound 1, 2′-C-methyl-guanosine, 5′-[2-[(3-hydroxy-2,2-dimethyl-1-oxopropyl)thio]ethyl N-(phenylmethyl)phosphoramidate]]
ppm Ethylene Sulfide Mean of 4 samples [1]: <9 ppm
serious adverse events [2]: No serious adverse events were reported
inhibition of HCV replication (in words) (HCV replication): ability to inhibit HCV replication
